Test results: patent publication US9296758B2, “2-quinolinyl-acetic acid derivatives as HIV antiviral compounds” (GILEAD SCIENCES, INC., priority 2010, dated 2016)
pEC50: −log10 of the molar value.

Tested on: HIV-IIIb
Assay: Test A: Antiviral Assays in MT4 Cells
Assay type: cell-based
Settings: MT-4 cells infected with HIV-IIIb (0.004 m.o.i.), 5 days of incubation, CellTiter-Glo chemiluminescence readout
How it was run: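 MT-4 cells pre-infected with HIV-IIIb (0.004 m.o.i.) or mock-infected, 2000 cells per well, were exposed to 10 three-fold serial compound dilutions in quadruplicate in RPMI 1640 with 10% FBS. After 5 days at 37° C, cell viability read by CellTiter-Glo chemiluminescence.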

[1] = Human immunodeficiency virus 1, IIIB, MT4, 120 h

## Cc1cc2nc(-c3ccn[nH]3)ccc2c(-c2ccc3c4c(ccnc24)CCO3)c1[C@H](OC(C)(C)C)C(=O)O (atropisomer, axis not shown) [Compound 71, (S)-2-tert-butoxy-2-((R)-5-(2,3-dihydropyrano[4,3,2-de]quinolin-7-yl)-7-methyl-2-(1H-pyrazol-5-yl)quinolin-6-yl)acetic acid]
[1]
  pEC50: 6.93

## Cc1cc2c(ccc(C)[n+]2[O-])c(-c2ccc3c4c(ccnc24)CCO3)c1[C@H](OC(C)(C)C)C(=O)O [Compound 22, (R)-6-((S)-tert-butoxy(carboxy)methyl)-5-(2,3-dihydropyrano[4,3,2-de]quinolin-7-yl)-2,7-dimethylquinoline 1-oxide]
[1]
  pEC50: 5.97

## C=CCCc1ccc2c(-c3ccc4c5c(ccnc35)CCO4)c([C@H](OC(C)(C)C)C(=O)O)c(C)cc2n1 (atropisomer, axis not shown) [Compound 48, (S)-2-((R)-2-(but-3-enyl)-5-(2,3-dihydropyrano[4,3,2-de]quinolin-7-yl)-7-methylquinolin-6-yl)-2-tert-butoxyacetic acid]
[1]
  pEC50: 7.59

## Cc1cc2nc(N(C)CC(C)C)ccc2c(-c2ccc3c4c(ccnc24)CCO3)c1[C@H](OC(C)(C)C)C(=O)O [Compound 92, (S)-2-tert-butoxy-2-((R)-5-(2,3-dihydropyrano[4,3,2-de]quinolin-7-yl)-2-(isobutyl(methyl)amino)-7-methylquinolin-6-yl)acetic acid]
[1]
  pEC50: 6.52

## Cc1cc2c(ccc3nc(C(C)C)cn32)c(-c2ccc3c4c(ccnc24)CCO3)c1[C@H](OC(C)(C)C)C(=O)O [Compound 60, (S)-2-tert-Butoxy-2-((R)-6-(2,3-dihydropyrano[4,3,2-de]quinolin-7-yl)-2-isopropyl-8-methylimidazo[1,2-a]quinolin-7-yl)acetic acid]
[1]
  pEC50: 6.52

## Cc1cc2c(ccc3nc(-c4ccccc4)cn32)c(-c2ccc3c4c(ccnc24)CCO3)c1[C@H](OC(C)(C)C)C(=O)O (atropisomer, axis not shown) [Compound 61, (S)-2-tert-Butoxy-2-((R)-6-(2,3-dihydropyrano[4,3,2-de]quinolin-7-yl)-8-methyl-2-phenylimidazo[1,2-a]quinolin-7-yl)acetic acid]
[1]
  pEC50: 6.92

## Cc1cc2nc(-c3cn(C)cn3)ccc2c(-c2ccc3c4c(ccnc24)CCO3)c1[C@H](OC(C)(C)C)C(=O)O (atropisomer, axis not shown) [Compound 85, (S)-2-tert-butoxy-2-((R)-5-(2,3-dihydropyrano[4,3,2-de]quinolin-7-yl)-7-methyl-2-(1-methyl-1H-imidazol-4-yl)quinolin-6-yl)acetic acid]
[1]
  pEC50: 6.88

## Cc1cc2nc(-c3ccn[nH]3)ccc2c(-c2ccc(Cl)cc2)c1[C@H](OC(C)(C)C)C(=O)O [Compound 70, (S)-2-tert-Butoxy-2-(5-(4-chlorophenyl)-7-methyl-2-(1H-pyrazol-5-yl)quinolin-6-yl)acetic acid]
[1]
  pEC50: 6.69

## Cc1cc2nc(C(C)(C)C)ccc2c(-c2ccc3c4c(ccnc24)CCO3)c1[C@H](OC(C)(C)C)C(=O)O [Compound 36, (S)-2-tert-butoxy-2-((R)-2-tert-butyl-5-(2,3-dihydropyrano[4,3,2-de]quinolin-7-yl)-7-methylquinolin-6-yl)acetic acid]
[1]
  pEC50: 7.70

## Cc1cc2nc(-c3cncnc3)ccc2c(-c2ccc(Cl)cc2)c1[C@H](OC(C)(C)C)C(=O)O [Compound 87, (S)-2-tert-Butoxy-2-(5-(4-chlorophenyl)-7-methyl-2-(pyrimidin-5-yl)quinolin-6-yl)acetic acid]
[1]
  pEC50: 6.76

## Cc1cc2[nH]c(=O)ccc2c(-c2ccc(Cl)cc2)c1[C@H](OC(C)(C)C)C(=O)O [Compound 8L, (S)-2-tert-butoxy-2-(5-(4-chlorophenyl)-7-methyl-2-oxo-1,2-dihydroquinolin-6-yl)acetic acid]
[1]
  pEC50: 6.25

## Cc1cc2nc(CCC3CC3)ccc2c(-c2ccc3c4c(ccnc24)CCO3)c1[C@H](OC(C)(C)C)C(=O)O (atropisomer, axis not shown) [Compound 43, (S)-2-tert-Butoxy-2-((R)-2-(2-cyclopropylethyl)-5-(2,3-dihydropyrano[4,3,2-de]quinolin-7-yl)-7-methylquinolin-6-yl)acetic acid]
[1]
  pEC50: 7.57

## Cc1cc2nc(N3CCOCC3)ccc2c(-c2ccc(Cl)cc2)c1[C@H](OC(C)(C)C)C(=O)O [Compound 29, (S)-2-tert-Butoxy-2-(5-(4-chlorophenyl)-7-methyl-2-morpholinoquinolin-6-yl)acetic acid]
[1]
  pEC50: 6.03

## COCCOCCCNc1ccc2c(-c3ccc(Cl)cc3)c([C@H](OC(C)(C)C)C(=O)O)c(C)cc2n1 [Compound 35, (S)-2-tert-butoxy-2-(5-(4-chlorophenyl)-2-(3-(2-methoxyethoxy)propylamino)-7-methylquinolin-6-yl)acetic acid]
[1]
  pEC50: 6.80

## Cc1cccc(C)c1-c1ccc2c(-c3ccc4c5c(ccnc35)CCO4)c([C@H](OC(C)(C)C)C(=O)O)c(C)cc2n1 [Compound 54, (S)-2-tert-Butoxy-2-((R)-5-(2,3-dihydropyrano[4,3,2-de]quinolin-7-yl)-2-(2,6-dimethylphenyl)-7-methylquinolin-6-yl)acetic acid]
[1]
  pEC50: 7.06

## Cc1cccnc1-c1ccc2c(-c3ccc4c5c(ccnc35)CCO4)c([C@H](OC(C)(C)C)C(=O)O)c(C)cc2n1 [Compound 106, (S)-2-tert-Butoxy-2-((R)-5-(2,3-dihydropyrano[4,3,2-de]quinolin-7-yl)-7-methyl-2-(3-methylpyridin-2-yl)quinolin-6-yl)acetic acid]
  pEC50: 7.60

## Cc1cc2nc(N(C)C)ccc2c(-c2ccc3c4c(ccnc24)CCO3)c1[C@H](OC(C)(C)C)C(=O)O [Compound 96, (S)-2-tert-butoxy-2-((R)-5-(2,3-dihydropyrano[4,3,2-de]quinolin-7-yl)-2-(dimethylamino)-7-methylquinolin-6-yl)acetic acid]
[1]
  pEC50: 7.43

## Cc1cc2nc(C#CC3CC3)ccc2c(-c2ccc(Cl)cc2)c1[C@H](OC(C)(C)C)C(=O)O [Compound 38, (S)-2-tert-butoxy-2-(5-(4-chlorophenyl)-2-(cyclopropylethynyl)-7-methylquinolin-6-yl)acetic acid]
[1]
  pEC50: 7.17

## Cc1cc2nc(C3CCCCC3)ccc2c(-c2ccc3c4c(ccnc24)CCO3)c1[C@H](OC(C)(C)C)C(=O)O (atropisomer, axis not shown) [Compound 52, (S)-2-tert-Butoxy-2-((R)-2-cyclohexyl-5-(2,3-dihydropyrano[4,3,2-de]quinolin-7-yl)-7-methylquinolin-6-yl)acetic acid]
[1]
  pEC50: 7.60

## CNCc1ccc2c(-c3ccc(Cl)cc3)c([C@H](OC(C)(C)C)C(=O)O)c(C)cc2n1 [Compound 10, (S)-2-tert-Butoxy-2-(5-(4-chlorophenyl)-7-methyl-2-((methylamino)methyl)quinolin-6-yl)acetic acid]
[1]
  pEC50: 6.05

## Cc1cc2[nH]c(=O)ccc2c(-c2ccc3c4c(ccnc24)CCO3)c1[C@H](OC(C)(C)C)C(=O)O [Compound 97, (S)-2-tert-Butoxy-2-((R)-5-(2,3-dihydropyrano[4,3,2-de]quinolin-7-yl)-7-methyl-2-oxo-1,2-dihydroquinolin-6-yl)acetic acid]
[1]
  pEC50: 6.05
